# Reference: patent US20160022684A1, “BET INHIBITOR AND BRUTON'S TYROSINE KINASE INHIBITOR COMBINATIONS” (Pharmacyclics LLC, priority 2014, published 2016)
# Columns and labels:
# [1] = test system: SU-DHL-2; test: Combined drug treatment cell viability (CellTiter-Glo), ibrutinib with BET inhibitors, SU-DHL-2; format: cell-based; conditions: JQ1 100 nM, 3 days
# Procedure: (§1) The DLBCL cell lines used during the experiments included TMD8, OCI-LY3, OCI-LY10, U-2932 and SU-DHL-2. DLBCL cells at either 1×10^4 cells or 2×10^4 cells were plated onto each well of a 96-W plate (Table 1). […] The 96-W plate was then incubated for 3 days. Cell viability was examined using a CellTiter-Glo assay. A 40 μL of CellTiter-Glo reagent was added directly into each well of the 96-W plate. The plate was then shaken on a Shaker ([…]) at speed 5 for 10-20 min at room temperature. Next, about 100 μL of the mixed medium was transferred to a white, non-transparent, flat bottom 96-W plate for assaying. […] Measurements were taken at room temperature. CellTiter-Glow reagents were thawed prior to use. Cells pre-plated onto a second 96-W plate and incubated at room temperature for 30 minutes were used for calibration purposes. […] CI is a quantitative description of the interaction property of the combination of two drugs.
# [2] = test system: TMD8; test: Combined drug treatment cell viability (CellTiter-Glo), ibrutinib with BET inhibitors, TMD8; format: cell-based; conditions: JQ1 20 nM, 3 days
# Procedure: as §1
# [3] = test system: YAC-1 (target cells); test: NK cell cytotoxicity of splenocytes from treated mice (A20 model); format: in vivo; conditions: combination of JQ1 with ibrutinib, splenocytes after 14 days of treatment, co-cultured with YAC-1 for 4 hours
# Procedure: To determine the drug effect on NK cell cytotoxicity, splenocytes (effector cells) were harvested from mice after 14 days of treatment. The splenocytes were co-cultured with YAC-1 (target cells) for 4 hours. The percentage of target cell death (PI-positive cells) was analyzed by flow cytometry.
# [4] = test system: U-2932; test: Combined drug treatment cell viability (CellTiter-Glo), ibrutinib with BET inhibitors, U-2932; format: cell-based; conditions: U2932, JQ1 20 nM, 3 days
# Procedure: as §1
# [5] = test system: OCI-LY10; test: Combined drug treatment cell viability (CellTiter-Glo), ibrutinib with BET inhibitors, OCI-LY10; format: cell-based; conditions: OCI-LY-10, JQ1 1 uM, 3 days
# Procedure: as §1
# [6] = test system: OCI-LY3; test: Combined drug treatment cell viability (CellTiter-Glo), ibrutinib with BET inhibitors, OCI-LY3; format: cell-based; conditions: OCI-LY-3, JQ1 1 uM, 3 days
# Procedure: as §1
# [7] = ibrutinib 0 nM (BET inhibitor alone): I-BET151 5 uM, OTX015 1 uM
# [8] = ibrutinib 0.0256 nM with I-BET151 5 uM, OTX015 1 uM or medium alone (row)
# [9] = ibrutinib 0.64 nM with I-BET151 5 uM, OTX015 1 uM or medium alone (row)
# [10] = ibrutinib 3.2 nM with I-BET151 5 uM, OTX015 1 uM or medium alone (row)
# [11] = ibrutinib 16 nM with I-BET151 5 uM, OTX015 1 uM or medium alone (row)
# [12] = ibrutinib 80 nM with I-BET151 5 uM, OTX015 1 uM or medium alone (row)
# [13] = ibrutinib 400 nM with I-BET151 5 uM, OTX015 1 uM or medium alone (row)
# [14] = ibrutinib 2000 nM with I-BET151 5 uM, OTX015 1 uM or medium alone (row)
# [15] = ibrutinib 10000 nM with I-BET151 5 uM, OTX015 1 uM or medium alone (row)
# [16] = ibrutinib […] with I-BET151 5 uM, OTX015 1 uM or medium alone (row)
smiles,measurement,setting,value
Cc1sc2c(c1C)C(c1ccc(Cl)cc1)=N[C@@H](CC(=O)OC(C)(C)C)c1nnc(C)n1-2 [JQ1],luminescent signals,"[1]; ibrutinib 0 nM (BET inhibitor alone): I-BET151 2 uM, OTX015 1 uM (Table 2)",17739.9
same,luminescent signals,"[1]; ibrutinib 0.0256 nM with I-BET151 2 uM, OTX015 1 uM (Table 2) or medium alone (row)",22662.83
same,luminescent signals,"[1]; ibrutinib 0.64 nM with I-BET151 2 uM, OTX015 1 uM (Table 2) or medium alone (row)",19308.19
same,luminescent signals,"[1]; ibrutinib 3.2 nM with I-BET151 2 uM, OTX015 1 uM (Table 2) or medium alone (row)",25589.27
same,luminescent signals,"[1]; ibrutinib 16 nM with I-BET151 2 uM, OTX015 1 uM (Table 2) or medium alone (row)",20485.07
same,luminescent signals,"[1]; ibrutinib 80 nM with I-BET151 2 uM, OTX015 1 uM (Table 2) or medium alone (row)",19823.08
same,luminescent signals,"[1]; ibrutinib 400 nM with I-BET151 2 uM, OTX015 1 uM (Table 2) or medium alone (row)",23679.47
same,luminescent signals,"[1]; ibrutinib 2000 nM with I-BET151 2 uM, OTX015 1 uM (Table 2) or medium alone (row)",29411.5
same,luminescent signals,"[1]; ibrutinib 10000 nM with I-BET151 2 uM, OTX015 1 uM (Table 2) or medium alone (row)",3706.648
same,luminescent signals,"[1]; ibrutinib […] with I-BET151 2 uM, OTX015 1 uM (Table 2) or medium alone (row)",19174.22
same,luminescent signals,"[2]; ibrutinib 0 nM (BET inhibitor alone): I-BET151 200 nM, OTX015 100 nM",59694.27
same,luminescent signals,"[2]; ibrutinib 0.0256 nM with I-BET151 200 nM, OTX015 100 nM or medium alone (row)",18249.87
same,luminescent signals,"[2]; ibrutinib 0.64 nM with I-BET151 200 nM, OTX015 100 nM or medium alone (row)",16842.39
same,luminescent signals,"[2]; ibrutinib 3.2 nM with I-BET151 200 nM, OTX015 100 nM or medium alone (row)",16468.11
same,luminescent signals,"[2]; ibrutinib 16 nM with I-BET151 200 nM, OTX015 100 nM or medium alone (row)",16312.6
same,luminescent signals,"[2]; ibrutinib 80 nM with I-BET151 200 nM, OTX015 100 nM or medium alone (row)",15297.84
same,luminescent signals,"[2]; ibrutinib 400 nM with I-BET151 200 nM, OTX015 100 nM or medium alone (row)",15282.03
same,luminescent signals,"[2]; ibrutinib 2000 nM with I-BET151 200 nM, OTX015 100 nM or medium alone (row)",15571.96
same,luminescent signals,"[2]; ibrutinib 10000 nM with I-BET151 200 nM, OTX015 100 nM or medium alone (row)",9818.137
same,luminescent signals,"[2]; ibrutinib […] with I-BET151 200 nM, OTX015 100 nM or medium alone (row)",18911.45
same,"NK cytotoxicity (percentage of target cell death, PI-positive cells)",[3],enhanced NK cytotoxicity
same,luminescent signals,"[4]; ibrutinib 0 nM (BET inhibitor alone): I-BET151 200 nM, OTX015 50 nM (Table 2)",55050.2
same,luminescent signals,"[4]; ibrutinib 0.0256 nM with I-BET151 200 nM, OTX015 50 nM (Table 2) or medium alone (row)",52636.54
same,luminescent signals,"[4]; ibrutinib 0.64 nM with I-BET151 200 nM, OTX015 50 nM (Table 2) or medium alone (row)",46610.32
same,luminescent signals,"[4]; ibrutinib 3.2 nM with I-BET151 200 nM, OTX015 50 nM (Table 2) or medium alone (row)",47334.95
same,luminescent signals,"[4]; ibrutinib 16 nM with I-BET151 200 nM, OTX015 50 nM (Table 2) or medium alone (row)",46417.97
same,luminescent signals,"[4]; ibrutinib 80 nM with I-BET151 200 nM, OTX015 50 nM (Table 2) or medium alone (row)",49232.14
same,luminescent signals,"[4]; ibrutinib 400 nM with I-BET151 200 nM, OTX015 50 nM (Table 2) or medium alone (row)",44892.31
same,luminescent signals,"[4]; ibrutinib 2000 nM with I-BET151 200 nM, OTX015 50 nM (Table 2) or medium alone (row)",44099.18
same,luminescent signals,"[4]; ibrutinib 10000 nM with I-BET151 200 nM, OTX015 50 nM (Table 2) or medium alone (row)",33551.32
same,luminescent signals,"[4]; ibrutinib […] with I-BET151 200 nM, OTX015 50 nM (Table 2) or medium alone (row)",54454.69
same,luminescent signals,[5]; [7],41458.59
same,luminescent signals,[5]; [8],45492.43
same,luminescent signals,[5]; [9],52166.4
same,luminescent signals,[5]; [10],39783.52
same,luminescent signals,[5]; [11],26164.72
same,luminescent signals,[5]; [12],24844.65
same,luminescent signals,[5]; [13],24502.8
same,luminescent signals,[5]; [14],24579.06
same,luminescent signals,[5]; [15],25346.91
same,luminescent signals,[5]; [16],47932.71
same,luminescent signals,[6]; [7],20530.28
same,luminescent signals,[6]; [8],21973.49
same,luminescent signals,[6]; [9],23078.2
same,luminescent signals,[6]; [10],22419.57
same,luminescent signals,[6]; [11],21821.3
same,luminescent signals,[6]; [12],21944.63
same,luminescent signals,[6]; [13],22621.62
same,luminescent signals,[6]; [14],24841.54
same,luminescent signals,[6]; [15],21414.57
same,luminescent signals,[6]; [16],22582.26
